Experimental data as given in the NIST ThermoML archive (doi:10.1016/j.jct.2005.09.003).

Experiments:
[1] = Liquid
[2] = refractive index (Na D-line) (dimensionless); details: 298.15 K; 101.33 kPa; Liquid; Standard Abbe refractometry

CCCCCCCl [1-chlorohexane]
mass density [kg/m3], [1]
Details | 298.15 K | 308.15 K | 318.15 K | 328.15 K
100 kPa | 873.42 | 863.99 | 854.58 | 845.18
2130 kPa | 874.73 | 865.56 | 856.27 | 847.12
4150 kPa | 876.45 | 867.35 | 858.19 | 849.17
6180 kPa | 878.31 | 869.15 | 860.06 | 851.16
8210 kPa | 879.79 | 870.9 | 861.91 | 853.13
10230 kPa | 881.44 | 872.61 | 863.73 | 855.02
11250 kPa | 882.22 | 873.47 | 864.62 | 855.98
12260 kPa | 883.01 | 874.3 | 865.5 | 856.91
14290 kPa | 884.61 | 875.96 | 867.28 | 858.76
16310 kPa | 886.16 | 877.59 | 869 | 860.59
18340 kPa | 887.68 | 879.2 | 870.66 | 862.35
20370 kPa | 889.18 | 880.78 | 872.33 | 864.12
22390 kPa | 890.65 | 882.35 | 873.95 | 865.82
24420 kPa | 892.14 | 883.86 | 875.54 | 867.51
26450 kPa | 893.54 | 885.35 | 877.12 | 869.18
28470 kPa | 894.96 | 886.84 | 878.67 | 870.8
29490 kPa | 895.65 | 887.56 | 879.43 | 871.6
30500 kPa | 896.32 | 888.21 | 880.19 | 872.4
32530 kPa | 897.71 | 889.73 | 881.7 | 873.95
34550 kPa | 899.05 | 891.14 | 883.17 | 875.49
36580 kPa | 900.38 | 892.52 | 884.63 | 877.05
38600 kPa | 901.69 | 893.9 | 886.04 | 878.53
39620 kPa | 902.33 | 894.55 | 886.76 | 879.31

Details | refractive index
[2] | 1.4172
